Source: patent US6310247A, “7-aryl-6(Z)-heptatrienoic acid retinamides” (Hoffmann-LA Roche Inc., priority 1999, dated 2001)
Like-named read-outs stand apart in the source and are kept apart here.

Assays:
Assay type in all cases: cell-based
[1] = system: MDA 435 cells; test: Cell growth inhibition: MTT assay, MDA 435 (ER- breast carcinoma); conditions: Homo sapiens, MDA435, read-out: % inhibition of cell growth compared to no drug control
Procedure: ER- breast carcinoma, human (MDA-435) obtained from Dr. Janet Price, MDA Cancer Center, Houston, Tex., were grown in Gibco's RPMI 1640 media supplemented with sodium pyruvate, 10% FBS and 13 ng/mL gentamicin. Cells were incubated at 37° C., 4.5% CO2 and 95.5% humidified air.
(§1) 1. Cell growth inhibition: MTT Assay
(§2) The compounds of formula 1 were tested for ability to inhibit cell growth using the standard MTT assay, a tetrazolium-based assay which measures the viability of cells in culture. Cells were harvested upon reaching 70-80% confluency and pelleted. The cells were then resuspended in medium in which FBS was replaced with Hyclone's Charcoal/Dextran stripped FBS, and seeded (2 mL/well) into 6-well plates (Corning) at a density allowing for linear growth over a four day assay period. Compounds of formula 1 (10 mM stock in dimethylsulfoxide (DMSO)) were added 18-24 hours post-seeding. Compound dilutions were prepared in the appropriate growth media and added to the cells for final concentrations of 10, 3.3 and 1 μM in 0.1% DMSO. At 24, 48 and 72 hr. time points, MTT (3-[4,5-dimethylthiazol-2-yl-2,5-diphenyltetrazolium bromide) stock solution (5mg/mL in 1 PBS) was added to the cells plates (625 μL/well) which were then incubated for 2.5 hours. Liquid was aspirated from the wells and 1 mL/well of 95% ethanol was added to solubilize the formazan reaction product. The plates were shaken (Bellco Mini-Orbital Shaker) for 15 minutes. The solubilized formazan was then transferred (50 μls) into a 96-well plate and the optical densities (OD) were measured (Bio-Tek Microplate Reader) at 570 nm and reference wavelength of 660 nm. Percentage of inhibition of cell growth was calculated according to the following formula: [formula]

[2] = system: MDA 231 cells; test: Cell growth inhibition: MTT assay, MDA 231 (ER- breast carcinoma); conditions: Homo sapiens, MDA-MB-231, read-out: % inhibition of cell growth compared to no drug control
Procedure: ER- breast carcinoma, human (MDA-231) obtained from ATCC (HTB 22), were grown in Eagle's MEM medium supplemented with non-essential amino acids, sodium pyruvate, and Earle's BSS, 10% FBS, and 13 ng/mL gentamicin. Cells were incubated at 37° C., 4.5% CO2 and 95.5% humidified air.
as §1, §2

[3] = system: ZR-75-1 cells; test: Cell growth inhibition: MTT assay, ZR-75-1 (ER+ breast carcinoma); conditions: Homo sapiens, read-out: % inhibition of cell growth compared to no drug control
Procedure: ER+ breast carcinoma, human (ZR-75-1) obtained from ATCC (CRL 1500), were grown in Gibco's RPMI 1640 media supplemented with sodium pyruvate, 10% FBS and 13 ng/mL gentamicin. Cells were incubated at 37° C., 4.5% CO2 and 95.5% humidified air.
as §1, §2

C/C(=C/C=C/C(C)=C/C(=O)Nc1ccc(O)cc1)c1cc(Br)cc(Br)c1 [N-(4-hydroxyphenyl)-(2E,4E,6Z)-7-(3,5-dibromophenyl)-3,7-dimethyl-2,4,6-heptatrienamide]
inhibition at 1 µM ([1]; 24 hours): 27%
inhibition at 3.3 µM ([1]; 24 hours): 28%
inhibition at 10 µM ([1]; 24 hours): 37%
inhibition at 1 µM ([1]; 48 hours): 70%
inhibition at 3.3 µM ([1]; 48 hours): 66%
inhibition at 10 µM ([1]; 48 hours): 70%
inhibition at 1 µM ([1]; 72 hours): 86%
inhibition at 3.3 µM ([1]; 72 hours): 88%
inhibition at 10 µM ([1]; 72 hours): 87%
inhibition at 1 µM ([2]; 24 hours): 6%
inhibition at 3.3 µM ([2]; 24 hours): 65%
inhibition at 10 µM ([2]; 24 hours): 65%
inhibition at 1 µM ([2]; 48 hours): 72%
inhibition at 3.3 µM ([2]; 48 hours): 81%
inhibition at 10 µM ([2]; 48 hours): 82%
inhibition at 1 µM ([2]; 72 hours): 78%
inhibition at 3.3 µM ([2]; 72 hours): 86%
inhibition at 10 µM ([2]; 72 hours): 87%

COc1cc(OC)cc(\C(C)=C/C=C/C(C)=C/C(=O)Nc2ccc(O)cc2)c1 [N-(4-hydroxyphenyl)-(2E,4E,6Z)-7-(3,5-dimethoxyphenyl)-3,7-dimethyl-2,4,6-heptatrienamide]
inhibition at 1 µM ([1]; 24 hours): 21%
inhibition at 3.3 µM ([1]; 24 hours): 36%
inhibition at 10 µM ([1]; 24 hours): 25%
inhibition at 1 µM ([1]; 48 hours): 64%
inhibition at 3.3 µM ([1]; 48 hours): 61%
inhibition at 10 µM ([1]; 48 hours): 61%
inhibition at 1 µM ([1]; 72 hours): 86%
inhibition at 3.3 µM ([1]; 72 hours): 87%
inhibition at 10 µM ([1]; 72 hours): 87%
inhibition at 1 µM ([2]; 24 hours): 18%
inhibition at 3.3 µM ([2]; 24 hours): 21%
inhibition at 10 µM ([2]; 24 hours): 30%
inhibition at 1 µM ([2]; 48 hours): 30%
inhibition at 3.3 µM ([2]; 48 hours): 52%
inhibition at 10 µM ([2]; 48 hours): 65%
inhibition at 1 µM ([2]; 72 hours): 25%
inhibition at 3.3 µM ([2]; 72 hours): 61%
inhibition at 10 µM ([2]; 72 hours): 64%

C/C(=C/C=C/C(C)=C/C(=O)Nc1ccc(O)cc1)c1cc(C)cc(C)c1 [N-(4-hydroxyphenyl)-(2E,4E,6Z)-7-(3,5-dimethylphenyl)-3,7-dimethyl-2,4,6-heptatrienamide]
inhibition at 1 µM ([1]; 24 hours): 56%
inhibition at 3.3 µM ([1]; 24 hours): 53%
inhibition at 10 µM ([1]; 24 hours): 53%
inhibition at 1 µM ([1]; 48 hours): 95%
inhibition at 3.3 µM ([1]; 48 hours): 92%
inhibition at 10 µM ([1]; 48 hours): 98%
inhibition at 1 µM ([1]; 72 hours): 95%
inhibition at 3.3 µM ([1]; 72 hours): 94%
inhibition at 10 µM ([1]; 72 hours): 91%
inhibition at 1 µM ([2]; 24 hours): 50%
inhibition at 3.3 µM ([2]; 24 hours): 51%
inhibition at 10 µM ([2]; 24 hours): 58%
inhibition at 1 µM ([2]; 48 hours): 60%
inhibition at 3.3 µM ([2]; 48 hours): 70%
inhibition at 10 µM ([2]; 48 hours): 72%
inhibition at 1 µM ([2]; 72 hours): 81%
inhibition at 3.3 µM ([2]; 72 hours): 82%
inhibition at 10 µM ([2]; 72 hours): 85%

CC(/C=C/C(C)=C/C(=O)Nc1ccc(O)cc1)=C(\C)c1cc(C(F)(F)F)cc(C(F)(F)F)c1 [N-(4-hydroxyphenyl)-(2E,4E,6Z)-7-[3,5-bis(trifluoromethyl)phenyl]-3,6,7-trimethyl-2,4,6-heptatrienamide]
inhibition at 1 µM ([1]; 24 hours): 3%
inhibition at 3.3 µM ([1]; 24 hours): 67%
inhibition at 10 µM ([1]; 24 hours): 68%
inhibition at 1 µM ([1]; 48 hours): 3%
inhibition at 3.3 µM ([1]; 48 hours): 95%
inhibition at 10 µM ([1]; 48 hours): 96%
inhibition at 1 µM ([1]; 72 hours): 4%
inhibition at 3.3 µM ([1]; 72 hours): 98%
inhibition at 10 µM ([1]; 72 hours): 99%
inhibition at 1 µM ([3]; 48 hours): 3%
inhibition at 3.3 µM ([3]; 48 hours): 0%
inhibition at 10 µM ([3]; 48 hours): 60%
inhibition at 1 µM ([3]; 72 hours): 16%
inhibition at 3.3 µM ([3]; 72 hours): 10%
inhibition at 10 µM ([3]; 72 hours): 80%
inhibition at 1 µM ([2]; 24 hours): 0%
inhibition at 3.3 µM ([2]; 24 hours): 0%
inhibition at 10 µM ([2]; 24 hours): 40%
inhibition at 1 µM ([2]; 48 hours): 0%
inhibition at 3.3 µM ([2]; 48 hours): 0%
inhibition at 10 µM ([2]; 48 hours): 57%
inhibition at 1 µM ([2]; 72 hours): 38%
inhibition at 3.3 µM ([2]; 72 hours): 48%
inhibition at 10 µM ([2]; 72 hours): 76%

CC(/C=C/C=C\c1cc(C(F)(F)F)cc(C(F)(F)F)c1)=C\C(=O)Nc1ccc(O)cc1 [N-(4-hydroxyphenyl)-(2E,4E,6Z)-7-[3,5-bis(trifluoromethyl)phenyl]-3-methyl-2,4,6-heptatrienamide]
inhibition at 1 µM ([1]; 24 hours): 19%
inhibition at 3.3 µM ([1]; 24 hours): 81%
inhibition at 10 µM ([1]; 24 hours): 91%
inhibition at 1 µM ([1]; 48 hours): 45%
inhibition at 3.3 µM ([1]; 48 hours): 93%
inhibition at 10 µM ([1]; 48 hours): 99%
inhibition at 1 µM ([1]; 72 hours): 73%
inhibition at 3.3 µM ([1]; 72 hours): 83%
inhibition at 10 µM ([1]; 72 hours): 100%
inhibition at 1 µM ([2]; 24 hours): 22%
inhibition at 3.3 µM ([2]; 24 hours): 33%
inhibition at 10 µM ([2]; 24 hours): 37%
inhibition at 1 µM ([2]; 48 hours): 42%
inhibition at 3.3 µM ([2]; 48 hours): 51%
inhibition at 10 µM ([2]; 48 hours): 50%
inhibition at 1 µM ([2]; 72 hours): 50%
inhibition at 3.3 µM ([2]; 72 hours): 68%
inhibition at 10 µM ([2]; 72 hours): 73%

C/C(=C/C=C/C(C)=C/C(=O)Nc1ccc(O)cc1)c1ccccc1 [N-(4-hydroxyphenyl)-(2E,4E,6Z)-7-phenyl-3,7-dimethyl-2,4,6-heptatrienamide]
inhibition at 1 µM ([1]; 24 hours): 3%
inhibition at 3.3 µM ([1]; 24 hours): 3%
inhibition at 10 µM ([1]; 24 hours): 2%
inhibition at 1 µM ([1]; 48 hours): 39%
inhibition at 3.3 µM ([1]; 48 hours): 40%
inhibition at 10 µM ([1]; 48 hours): 42%
inhibition at 1 µM ([1]; 72 hours): 41%
inhibition at 3.3 µM ([1]; 72 hours): 51%
inhibition at 10 µM ([1]; 72 hours): 68%
inhibition at 1 µM ([2]; 24 hours): 45%
inhibition at 3.3 µM ([2]; 24 hours): 57%
inhibition at 10 µM ([2]; 24 hours): 58%
inhibition at 1 µM ([2]; 48 hours): 67%
inhibition at 3.3 µM ([2]; 48 hours): 80%
inhibition at 10 µM ([2]; 48 hours): 81%
inhibition at 1 µM ([2]; 72 hours): 76%
inhibition at 3.3 µM ([2]; 72 hours): 87%
inhibition at 10 µM ([2]; 72 hours): 88%
